The target of one experiment is T1, 5HT-uptake (Rattus norvegicus, UniProt P31652).
T1 construct: synaptosomes from rat brain regions were freshly isolated; from tissue; host or cells: P2 synaptosome fraction from rat brain regions
The experiment can be described thus: Serotonin uptake inhibition (5HT uptake) in synaptosomes. The settings on record: rat brain synaptosomes. Format: biochemical.

A further experiment has as its target T2, NA transporter (Rattus norvegicus, UniProt Q9WTR4).
T2 construct: synaptosomes from rat brain regions were freshly isolated; from tissue; host or cells: P2 synaptosome fraction from hypothalamus of male rat brain
The experiment can be described thus: Noradrenalin uptake inhibition (NA-uptake) in synaptosomes. Format: biochemical. The settings on record: rat hypothalamus synaptosomes. The source says: Tests on Noradrenalin Uptake Inhibition (NA-Uptake Inhibition)
In order to be able to carry out these in vitro studies, synaptosomes from rat brain regions were freshly isolated.

T1 sequence (P31652 whole entry): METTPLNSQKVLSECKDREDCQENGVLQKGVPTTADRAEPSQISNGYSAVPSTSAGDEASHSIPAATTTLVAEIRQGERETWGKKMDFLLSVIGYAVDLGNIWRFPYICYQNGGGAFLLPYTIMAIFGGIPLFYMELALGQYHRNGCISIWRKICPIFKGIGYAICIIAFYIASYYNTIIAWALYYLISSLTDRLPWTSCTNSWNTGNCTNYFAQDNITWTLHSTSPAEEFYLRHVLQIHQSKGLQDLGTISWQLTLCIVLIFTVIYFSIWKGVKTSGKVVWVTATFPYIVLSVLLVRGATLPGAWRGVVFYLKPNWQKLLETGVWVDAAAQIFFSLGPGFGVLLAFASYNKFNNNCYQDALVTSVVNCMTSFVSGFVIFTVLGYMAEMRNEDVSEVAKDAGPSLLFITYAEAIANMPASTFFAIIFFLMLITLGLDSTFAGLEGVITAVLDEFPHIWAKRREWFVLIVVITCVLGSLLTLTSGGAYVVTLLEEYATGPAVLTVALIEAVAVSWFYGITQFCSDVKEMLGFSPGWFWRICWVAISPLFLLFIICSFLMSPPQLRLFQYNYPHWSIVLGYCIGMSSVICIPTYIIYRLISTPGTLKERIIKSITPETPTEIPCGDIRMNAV
T2 sequence (Q9WTR4 1-597): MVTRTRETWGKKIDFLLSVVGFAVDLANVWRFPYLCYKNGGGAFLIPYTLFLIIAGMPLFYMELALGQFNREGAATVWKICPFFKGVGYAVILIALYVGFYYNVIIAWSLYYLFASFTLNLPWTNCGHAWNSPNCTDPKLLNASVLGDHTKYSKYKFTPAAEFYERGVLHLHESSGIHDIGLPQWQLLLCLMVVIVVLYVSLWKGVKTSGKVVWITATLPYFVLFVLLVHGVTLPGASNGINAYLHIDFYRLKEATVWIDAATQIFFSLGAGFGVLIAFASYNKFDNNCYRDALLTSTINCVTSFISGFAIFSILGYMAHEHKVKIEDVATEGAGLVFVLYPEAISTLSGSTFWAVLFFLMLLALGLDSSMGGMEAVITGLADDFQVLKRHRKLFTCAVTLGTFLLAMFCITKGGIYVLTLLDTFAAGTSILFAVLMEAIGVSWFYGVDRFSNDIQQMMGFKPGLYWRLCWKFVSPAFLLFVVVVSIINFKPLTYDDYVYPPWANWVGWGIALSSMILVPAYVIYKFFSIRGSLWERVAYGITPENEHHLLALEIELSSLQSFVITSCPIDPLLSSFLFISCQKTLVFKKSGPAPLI
Source text for 5HT-uptake: Tests on Serotonin Uptake (5HT Uptake Inhibition)

A word on the inhibition: it is the percentage by which the read-out fell short of the control. `O=C(NCC1CC1)C1=NOC2(CCN(C(=O)c3cccc(Cl)c3Cl)CC2)C1` [Example 157, 8-(2,3-dichloro-benzoyl)-1-oxa-2,8-diaza-spiro[4,5]dec-2-ene-3-carboxylic acid cyclopropylmethyl-amide] gave an inhibition at 10 µM on 5HT-uptake of 52%.
On the same count and under the same terms, for `CCOC(=O)CCNC(=O)C1=NOC2(CCN(S(=O)(=O)CC34CCC(CC3=O)C4(C)C)CC2)C1` (stereo not drawn) [Example 66, 3-{[8-(7,7-dimethyl-2-oxo-bicyclo[2.2.1]hept-1-ylmethane-sulphonyl)-1-oxa-2,8-diaza-spiro[4,5]dec-2-ene-3-carbonyl]-amino]-propionic acid ethyl ester] the value was 40%.
As to `CCOP(=O)(Cc1ccc(NC(=O)C2=NOC3(CCN(S(=O)(=O)Cc4ccccc4)CC3)C2)cc1)OCC` [Example 2], the “5HT-uptake, 10 μM, % inhibition” value on 5HT-uptake is on record as 55%.
With `CCOC(=O)N1CCC(NC(=O)C2=NOC3(CCN(S(=O)(=O)c4cc([N+](=O)[O-])ccc4C)CC3)C2)CC1` [Example 90, 4-{[8-(2-methyl-5-nitro-benzenesulphonyl)-1-oxa-2,8-diaza-spiro[4,5]dec-2-ene-3-carbonyl]-amino}-piperidine-1-carboxylic acid ethyl ester], 10 µM produced 48% inhibition at 5HT-uptake.
Take `COC(=O)C(Cc1c[nH]c2ccccc12)NC(=O)C1=NOC2(CCN(S(=O)(=O)c3ccc(OC(F)(F)F)cc3)CC2)C1` (stereo not drawn) [Example 1, 3-(1H-indo1-3-yl)-2-{[8-(4-trifluoromethoxy-benzene-sulphonyl)-1-oxa-2,8-diaza-spiro[4,5]dec-2-ene-3-carbonyl]-amino}-propionic acid methyl ester]: the “5HT-uptake, 10 μM, % inhibition” value at 5HT-uptake came out at 47%.
`Cc1ccc(S(=O)(=O)NC(Cc2ccccc2)C(=O)N2CCC3(CC2)CC(C(=O)NCCC#N)=NO3)cc1` (stereo not drawn) [Example 41, 8-[3-phenyl-2-(toluene-4-sulphonylamino)-propionyl]-1-oxa-2,8-diaza-spiro[4,5]dec-2-ene-3-carboxylic acid (2-cyano-ethyl)-amide]: at 5HT-uptake, 10 µM produced 70% inhibition.
As to `COc1ccc(C(=O)N2CCC3(CC2)CC(C(=O)NCc2ccc(C)o2)=NO3)cc1` [Example 59], at 5HT-uptake, the “5HT-uptake, 10 μM, % inhibition” value is 45%.
Regarding `O=C(NCc1cccc(F)c1)C1=NOC2(CCN(S(=O)(=O)c3cccs3)CC2)C1` [Example 24, 8-(thiophene-2-sulphonyl)-1-oxa-2,8-diaza-spiro[4,5]dec-2-ene-3-carboxylic acid 3-fluorobenzylamide], on 5HT-uptake, at 10 µM the inhibition was 40%.
Still for that read-out and setting: the figure for `O=C(NC1CCCCCCC1)C1=NOC2(CCN(S(=O)(=O)c3ccc(OC(F)(F)F)cc3)CC2)C1` [Example 86, 8-(4-trifluoromethoxy-benzenesulphonyl)-1-oxa-2,8-diaza-spiro[4,5]dec-2-ene-3-carboxylic acid cyclooctylamide] is 46%; for `CCCC(=O)N1CCC2(CC1)CC(C(=O)Nc1ccccc1)=NO2` [Example 85, 8-butyryl-1-oxa-2,8-diaza-spiro[4,5]dec-2-ene-3-carboxylic acid phenylamide] it is 41%; for `COCCOCC(=O)N1CCC2(CC1)CC(C(=O)NCc1ccccc1)=NO2` [Example 87, 8-[2-(2-methoxy-ethoxy)-acetyl]-1-oxa-2,8-diaza-spiro[4,5]dec-2-ene-3-carboxylic acid benzylamide] it is 40%.
Same read-out and setting: for `O=C(Nc1ccc2ccccc2c1)C1=NOC2(CCN(S(=O)(=O)c3ccc(OC(F)(F)F)cc3)CC2)C1` [Example 54, 8-(4-trifluoromethoxy-benzenesulphonyl)-1-oxa-2,8-diaza-spiro[4,5]dec-2-ene-3-carboxylic acid naphthalen-2-ylamide] the value was 43%; for `CC(=O)NCCNC(=O)C1=NOC2(CCN(S(=O)(=O)c3cc(F)ccc3C)CC2)C1` [Example 17, 8-(5-fluoro-2-methyl-benzenesulphonyl)-1-oxa-2,8-diaza-spiro[4,5]dec-2-ene-3 carboxylic acid (2-acetylamino-ethyl)-amide], 46%; for `COc1cccc(CNC(=O)C2=NOC3(CCN(S(=O)(=O)c4ccc(OC(F)(F)F)cc4)CC3)C2)c1` [Example 162, 8-(4-trifluoromethoxy-benzenesulphonyl)-1-oxa-2,8-diaza-spiro[4,5]dec-2-ene-3-carboxylic acid 3-methoxy-benzylamide], 40%.
Same read-out and setting: the figure for `CC(=O)N1CCC2(CC1)CC(C(=O)NCc1ccccc1)=NO2` [Example 48, 8-acetyl-1-oxa-2,8-diaza-spiro[4,5]dec-2-ene-3-carboxylic acid benzylamide] is 41%.
Turning to `COc1cc(OC)cc(N2CCN(C(=O)C3=NOC4(CCN(S(=O)(=O)c5ccc(Cl)s5)CC4)C3)CC2)c1` [Example 71, [8-(5-chloro-thiophene-2-sulphonyl)-1-oxa-2,8-diaza-spiro[4,5]dec-2-en-3-yl]-[4-(3,5-dimethoxy-phenyl)-piperazin-l-yl]-methanone], the “5HT-uptake, 10 μM, % inhibition” value on 5HT-uptake is recorded as 43%.
On the same count and under the same terms, for `CCOC(=O)CCNC(=O)C1=NOC2(CCN(C(=O)c3c(Cl)ccc(C)c3F)CC2)C1` [Example 148] the value was 47%.
At 5HT-uptake, `CCOC(=O)N1CCC(NC(=O)C2=NOC3(CCN(C(=O)c4ccc(F)cc4F)CC3)C2)CC1` [Example 56, 4-{[8-(2,4-difluoro-benzoyl)-1-oxa-2,8-diaza-spiro[4,5]dec-2-ene-3-carbonyl]-amino}-piperidine-1-carboxylic acid ethyl ester] registered an inhibition at 10 µM of 52%.
Still for that read-out and setting: for `Cc1ccc(S(=O)(=O)N2CCC3(CC2)CC(C(=O)NCCN(C)C)=NO3)cc1` [Example 57, 8-(toluene-4-sulphonyl)-1-oxa-2,8-diaza-spiro[4,5]dec-2-ene-3-carboxylic acid (2-dimethylamino-ethyl)-amide] the value was 41%; for `COc1ccc(CNC(=O)C2=NOC3(CCN(S(=O)(=O)c4cc(Cl)ccc4Cl)CC3)C2)cc1OC` [Example 68, 8-(2,5-dichloro-benzenesulphonyl)-1-oxa-2,8-diaza-spiro[4,5]dec-2-ene-3-carboxylic acid 3,4-dimethoxy-benzylamide], 52%.
Consider `CCOC(=O)N1CCC(NC(=O)C2=NOC3(CCN(C(=O)c4ccc(Br)cc4)CC3)C2)CC1` [Example 62, 4-{[8-(4-bromo-benzoyl)-1-oxa-2,8-diaza-spiro[4,5]dec-2-ene-3-carbonyl]-amino)-piperidine-l-carboxylic acid ethyl ester], for which, on 5HT-uptake, the “5HT-uptake, 10 μM, % inhibition” value is given as 73%.
As to `CN1CCCC1CCNC(=O)C1=NOC2(CCN(S(=O)(=O)c3ccc(Cl)s3)CC2)C1` (stereo not drawn) [Example 61, 8-(5-chloro-thiophene-2-sulphonyl)-1-oxa-2,8-diaza-spiro[4,5]dec-2-ene-3-carboxylic acid [2-(1-methyl-pyrrolidin-2-yl)-ethyl]-amide], testing at 10 µM at 5HT-uptake gave an inhibition of 72%.
`Cc1ccc([N+](=O)[O-])cc1S(=O)(=O)N1CCC2(CC1)CC(C(=O)NCCN(C)C)=NO2` [Example 19, 8-(2-methyl-5-nitro-benzenesulphonyl)-1-oxa-2,8-diaza-spiro[4,5]dec-2-ene-3 carboxylic acid (2-dimethylamino-ethyl)-amide] registered an inhibition at 10 µM on 5HT-uptake of 80%.
The compound `CCCCCC(=O)N1CCC2(CC1)CC(C(=O)NCC1CC1)=NO2` [Example 158, 8-hexanoyl-1-oxa-2,8-diaza-spiro[4,5]dec-2-ene-3-carboxylic acid cyclopropylmethyl-amide] returned an inhibition at 10 µM against 5HT-uptake of 42%.
The same measure, in the same setting: for `O=C(NCc1cc(F)ccc1F)C1=NOC2(CCN(S(=O)(=O)c3ccc(Cl)s3)CC2)C1` [Example 49, 8-(5-chloro-thiophene-2-sulphonyl)-1-oxa-2,8-diaza-spiro[4,5]dec-2-ene-3 carboxylic acid 2,5-difluoro-benzylamide] the value was 50%.
With `C=CCOC(=O)C(CC(=O)OC(C)(C)C)NC(=O)C1=NOC2(CCN(S(=O)(=O)c3cc(Cl)ccc3Cl)CC2)C1` (stereo not drawn) [Example 53], the “5HT-uptake, 10 μM, % inhibition” value at 5HT-uptake came out at 53%.
Compound `O=C(NC(c1ccccc1)c1ccccc1)C1=NOC2(CCN(S(=O)(=O)c3ccc(Cl)s3)CC2)C1` [Example 40, 8-(5-chloro-thiophene-2-sulphonyl)-1-oxa-2,8-diaza-spiro[4,5]dec-2-ene-3 carboxylic acid benzhydryl-amide] gave an inhibition at 10 µM against 5HT-uptake of 45%.
On the same count and under the same terms, for `O=C(C1=NOC2(CCN(S(=O)(=O)c3ccc(Cl)s3)CC2)C1)N1CCN(c2ccc(F)cc2)CC1` [Example 91, [8-(5-chloro-thiophene-2-sulphonyl)-1-oxa-2,8-diaza-spiro[4,5]dec-2-en-3-yl]-[4-(4-fluorophenyl)-piperazin-1-yl]-methanone] the value was 45%.
For the compound `O=C(C1=NOC2(CCN(S(=O)(=O)Cc3ccccc3)CC2)C1)N1CCN(Cc2ccc3ccccc3c2)CC1` [Example 6, (4-naphthalen-2-ylmethyl-piperazin-l-yl)-(8-phenylmethane-sulphonyl-1-oxa-2,8 diaza-spiro[4,5]dec-2-en-3-yl)-methanone], on 5HT-uptake, the “5HT-uptake, 10 μM, % inhibition” value is given as 54%.
Still for that read-out and setting: for `CCOC(=O)CCNC(=O)C1=NOC2(CCN(S(=O)(=O)c3cc([N+](=O)[O-])ccc3C)CC2)C1` [Example 95] the value was 54%; for `N#CCCN(CC1CCCO1)C(=O)C1=NOC2(CCN(S(=O)(=O)c3cc(Cl)ccc3Cl)CC2)C1` (stereo not drawn) [Example 100], 43%.
In turn, `Cc1ccc(S(=O)(=O)N2CCC3(CC2)CC(C(=O)Nc2ccc(Oc4ccccc4)cc2)=NO3)cc1` [Example 22, 8-(toluene-4-sulphonyl)-1-oxa-2,8-diaza-spiro[4,5]dec-2-ene-3-carboxylic acid (4-phenoxy-phenyl)-amide] registered an inhibition at 10 µM at NA transporter of 42%.
On the same count and under the same terms, for `O=C(NCc1cccs1)C1=NOC2(CCN(S(=O)(=O)c3ccc(Cl)cc3)CC2)C1` [Example 127, 8-(4-chloro-benzenesulphonyl)-1-oxa-2,8-diaza-spiro[4,5]dec-2-ene-3-carboxylic acid (thiophen-2-ylmethyl)-amide] the value was 51%.
